Here are results for 3 molecules from the NIST ThermoML archive (doi:10.1021/je0501585).

± gives the expanded uncertainty stated by the source.

For data set [1] the following is noted: Liquid; for viscosity / speed of sound: 101 kPa; for viscosity: Capillary tube (Ostwald / Ubbelohde) method; for speed of sound: Linear variable-path acoustic interferometer; for mass density: 101.33 kPa, Pycnometric method.
Data set [2] in a line: xn = mol fraction of the nth substance listed. Particulars: 101 kPa, Liquid, x2 = 0; for viscosity: Capillary tube (Ostwald / Ubbelohde) method; for excess molar volume: Direct dilatometry; for speed of sound: Linear variable-path acoustic interferometer.

Consider `Cc1ccc(C)cc1` [1,4-dimethylbenzene], for which the viscosity in data set [1] (303.15 K) was 0.566 ± 0.016 mPa·s; in data set [1] (308.15 K), 0.537 ± 0.015 mPa·s; in data set [1] (313.15 K), 0.513 ± 0.015 mPa·s. The results for the speed of sound in data set [1] (303.15 K), in data set [1] (308.15 K) and in data set [1] (313.15 K) were 1283.7 ± 5.2 m/s, 1271 ± 5.2 m/s and 1260 ± 5.2 m/s, respectively. Also, the mass density in data set [1] (303.15 K) was 852.3 ± 2.3 kg/m3; in data set [1] (308.15 K) it was 847.9 ± 2.3 kg/m3; in data set [1] (313.15 K), 843.6 ± 2.2 kg/m3. The “vapor or sublimation pressure” value in data set [1] (410 K) amounted to 97.3 ± 4.9 kPa.
Consider `CCCCCCCCCC` [decane], for which, in data set [1] (303.15 K), the viscosity turned out to be 0.786 ± 0.021 mPa·s, the speed of sound came out at 1210 ± 5.2 m/s and the mass density was found to be 722.3 ± 1.9 kg/m3. Further, in data set [1] (308.15 K), the viscosity was found to be 0.717 ± 0.019 mPa·s, the speed of sound is on record as 1189 ± 5.2 m/s and the mass density was 718.2 ± 1.9 kg/m3. Moreover, in data set [1] (313.15 K), the viscosity is 0.694 ± 0.019 mPa·s, the speed of sound amounted to 1175.3 ± 5.2 m/s and the mass density worked out at 714.7 ± 1.9 kg/m3. Besides, the “vapor or sublimation pressure” value in data set [1] (445.7 K) amounted to 97.3 ± 4.9 kPa.
In the case of `CCCCCCCCCC` [decane] + Cc1ccc(C)cc1, in data set [2] (303.15 K), the viscosity worked out at 0.786 ± 0.021 mPa·s, the excess molar volume is 0 ± 6e-09 m3/mol and the speed of sound worked out at 1210 ± 5.2 m/s. In data set [2] (308.15 K), the viscosity was 0.717 ± 0.019 mPa·s, the excess molar volume is recorded as 0 ± 6e-09 m3/mol and the speed of sound stood at 1189 ± 5.2 m/s. In data set [2] (313.15 K), the viscosity is 0.694 ± 0.019 mPa·s, the excess molar volume is given as 0 ± 6e-09 m3/mol and the speed of sound was 1175.3 ± 5.2 m/s.
